# Experimental data as given in patent US9090897B2, “Production of IFN-lambda by conventional dendritic cells” (Bavarian Nordic A/S, priority 2009, dated 2015).
# “Also recorded” adds a separate entry of the source.
# Assays:
# [1] = tested on: eCD8α cDCs; test: In vitro stimulation of FL expanded ex-vivo isolated splenic eCD8α cDCs, IFN-λ; assay type: cell-based, mouse; conditions: 5×10^5/ml, IL-3+GM-CSF+IL-4+IFN-γ, 100 μg/ml, 18 h
# Description: FIG. 13 depicts that in vivo FL expanded CD8α+cDCs and eCD8α cDCs selectively produce IFN-λ to poly AU in vitro. Highly purified FL expanded ex-vivo isolated splenic 5×10^5/ml were stimulated in the presence of IL-3+GM-CSF+IL-4+IFN-γ with either poly IC (100 μg/ml) or poly AU (100 μg/ml). After 18 h supernatants were analyzed for IFN-λ.
# To see if the IFN-λ production to poly AU seen in vivo would correspond with the same cells as in response to poly IC we enhanced the amount of DC in mice with FL treatment and sorted CD8α+ cDCs, eCD8α cDCs and CD11b+/CD172a+cDCs. Those cells were stimulated with poly IC or poly AU.
# [2] = tested on: mice; test: In vivo challenge (i.v.), serum IFN-λ and IFN-α by ELISA; set-up: species or system mouse; conditions: 100 μg i.v.
# [3] = tested on: splenic pDCs; test: In vitro stimulation of sorted splenic pDCs, IFN-λ ELISA; assay type: cell-based, mouse; conditions: 5×10^5/ml, IL-3 and GM-CSF, 18 h
# Source text: DC subsets were isolated from pooled mouse spleens as described (Vremec et al., 2007). Briefly, spleens were chopped, digested with collagenase (Worthington Biochemical) and DNase (Roche) at room temperature, and treated with EDTA. Low-density cells were enriched by density centrifugation; non-DC lineage cells were coated with mAbs (anti-CD3, KT3-1.1; anti-Thy-1, T24/31.7; anti Gr-1, 1A8; anti-CD19, ID3; anti-erythrocytes, TER119 and anti-NK cells, DX5) and depleted using anti-rat Ig magnetic beads (Qiagen). Dead cells were excluded by propidium iodide staining. cDC populations were sorted based on the expression of CD11c, CD45RA, CD4, CD8a and CD172a and pDCs were purified based on CD11c, CD45RA, and CD172a (all BD Biosciences) expression. Cell sorting was performed on a FACS Aria instrument (BD Biosciences).
# (§1) Cells were stimulated in vitro with single TLR agonists or combinations thereof containing 10 μg/ml Pam3Cys (InvivoGen), 100 μg/ml poly IC (Axxora), 10 μg/ml LPS (E. coli; Sigma-Aldrich or Axxora), 10 μg/ml R848 (Axxora), 1 μM CpG-1668 or CpG-2216 (TIB-Molbiol), 1 μg/ml profilin of toxoplasma (Axxora). […] IFN-λ in supernatants was analyzed by ELISA and IL-12p70 was determined by FlowCytomix bead assay (Bender Medsystems) according to manufacturer's protocol.
# [4] = tested on: total non parenchymal liver cells; test: In vitro stimulation of total non parenchymal liver cells, IFN-λ and IL-12p70; assay type: cell-based, mouse; conditions: liver cells from WT mice, 2.5×10^6/ml, IL-3+IL-4+IFN-γ+GM-CSF, 18 h
# Description: FIGS. 3A and B depict that FL is involved in the production of IFN-λ in vivo. (A) Isolated total non parenchymal liver cells 2.5×10^6/ml were stimulated in the presence of IL-3+IL-4+IFN-γ+GM-CSF with the stimuli as indicated. After 18 h supernatants were analyzed for IFN-λ and IL-12p70. Representative results of 3 experiments are shown. Data represent mean+/−SD of duplicate samples. (B) WT and FL-KO mice were injected i.v. with 100 μg poly IC. After 3-4 h sera were analyzed for IFN-λ and IFN-α. Circles indicate the results of individual mice and columns represent the mean thereof.
# as §1, with “(Axxora). The recombinant cytokines mouse-IL-3, mouse-IL-4, rat-IFN-γ (PeproTech) and mouse-GM-CSF (Tebu-Bio) (10 ng/ml each) were added as indicated.” for “(Axxora).”, “protocol. […]” for “protocol.”
substance,measurement,setting,value
Polyinosinic:polycytidylic acid [poly IC],IFN-λ production,[1],able to produce IFN-λ
same,serum IFN-α,"[2]; Cardif-KO mice, 3-4 h",complete abrogation of serum IFN-α
same,serum IFN-λ,"[2]; Cardif-KO mice, 3-4 h",no effects on IFN-λ production
same,Serum levels of IFN-α,"[2]; FL-KO mice, 3-4 h",remained easily detectable
same,systemic production of IFN-α,"[2]; IFN-AR-KO vs WT mice, 3-4 h",largely dependent on the presence of IFN-AR
same,systemic production of IFN-λ,"[2]; IFN-AR-KO vs WT mice, 3-4 h",largely dependent on the presence of IFN-AR
same,serum IFN-α,"[2]; IRF7-KO mice, 3-4 h",almost abrogated
same,serum IFN-α,"[2]; MyD88-KO mice, 3-4 h",Large amounts
same,serum IFN-λ,"[2]; MyD88-KO mice, 3-4 h",Large amounts
same,serum IFN-α,"[2]; TLR3-KO mice, 3-4 h",no effect on the production of IFN-α
same,Serum levels of IFN-α,"[2]; WT mice, sera after 3-4 h",easily detectable; also recorded: Large amounts
same,IFN-λ production,[3],largely unable to participate in IFN-λ production
same,IFN-λ production,[4],produced IFN-λ
